Where only a bound is given, the exact number is not on record here.

T1 sequence (Q13547 whole entry, species assumed): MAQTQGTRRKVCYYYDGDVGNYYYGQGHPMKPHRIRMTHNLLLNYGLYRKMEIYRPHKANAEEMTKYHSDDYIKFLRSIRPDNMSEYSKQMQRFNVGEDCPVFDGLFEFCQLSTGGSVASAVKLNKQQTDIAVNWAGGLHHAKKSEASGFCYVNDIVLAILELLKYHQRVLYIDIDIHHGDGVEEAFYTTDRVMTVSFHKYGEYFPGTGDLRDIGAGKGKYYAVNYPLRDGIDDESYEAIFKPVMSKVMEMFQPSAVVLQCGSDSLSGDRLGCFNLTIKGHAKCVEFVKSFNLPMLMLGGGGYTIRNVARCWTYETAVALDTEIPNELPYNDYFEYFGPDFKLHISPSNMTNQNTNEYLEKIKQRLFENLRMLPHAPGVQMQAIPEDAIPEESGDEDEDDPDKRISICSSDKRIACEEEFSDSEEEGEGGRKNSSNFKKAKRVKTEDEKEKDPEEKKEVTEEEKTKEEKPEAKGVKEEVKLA

One assay concerns HT-29 cells (human colon carcinoma cell line). Kind of assay: MTT assay on HT-29 human colon carcinoma cell line. In kind it is cell-based. Particulars: Homo sapiens, 120 h, MTT assay after 5 days, read-out: IC90 HT29. The protocol: To show the activity of the compounds according to this invention, their effects on a human colon carcinoma cell line was evaluated using a standard MTT-assay. MTT (3-(4,5-dimethylthiazol-2-yl)-2,5-diphenyl tetrazolium bromide) is widely used for the quantitative determination of cytotoxic effects or in vitro chemosensitivity of tumor cells. The assay is based on the cleavage of the yellow tetrazolium salt (MTT) to purple formazan crystals by metabolic active cells. For details, see Rubinstein, L. V., et al., J. Natl. Cancer Inst. 82 (1990) 1113-1118.
We proceeded as follows: HT-29 cells (human colon carcinoma cell line, ATCC-No. HTB-38) were cultivated in RPMI 1640 medium with GlutaMAX™ I (Invitrogen, Cat-No. 61870-010), 2.5% fetal calf serum (FCS, Sigma Cat-No. F4135 (FBS)), 2 mM glutamine, 100 units/ml penicillin, 100 μg/ml streptomycin (=Pen/Strep from Invitrogen Cat. No. 15140). For the assay the cells were seeded in 384 well plates, 900 cells per well, in the same medium. At the next day, the compounds (dissolved 10 mM in DMSO) were added in various concentrations ranging from 30 μM to 1.5 nM. After 5 days, the MTT assay was done mainly according to the instructions of the manufacturer (Cell proliferation kit I, MTT, from Roche Molecular Biochemicals). In brief: MTT labeling reagent was added to a final concentration of 0.5 mg/ml, added and incubated for 4 hrs at 37° C., 5% CO2. During this incubation time purple formazan crystals are formed. After addition of the solubilization solution (20% Sodium Dodecyl Sulfate (SDS) in 0.02 M HCl) the plates were incubated overnight at 37° C., 5% CO2. After careful mixing, the plates were measured in Victor 2 (scanning multiwell spectrophotometer, Wallac) at 550 nm.
A decrease in number of living cells results in a decrease in the total metabolic activity in the sample. The decrease directly correlates to the amount of purple colour resulting from the solubilization of the purple formazan crystals. Determination of IC90 was done using XL-fit (XLfit software (ID Business Solution Ltd., Guilford, Surrey, UK)).
For orientation: Formazan colour is commonly taken as a measure of viable cells.
One may read the IC90 as the point of the concentration-response curve where the effect stands at 90%. Turning to `CC(NC(=O)c1ccc(C(=O)NO)s1)c1cccc(-c2ccc(F)cc2)c1` (stereo not drawn) [Example 2-8, Thiophene-2,5-dicarboxylic acid 2-{[1-(4′-fluoro-biphenyl-3-yl)-ethyl]-amide} 5-hydroxyamide], the IC90 is 100 to 500 nM.
On the same count and under the same terms, then `CC(NC(=O)c1ccc(C(=O)NO)s1)c1ccccc1` (stereo not drawn) [Reference compound, reference compound], with 1120 nM.

The assay is the same for the next values; noted with them: MTT assay after 5 days, read-out: IC90 HT29.
Consider `CC(NC(=O)c1ccc(C(=O)NO)s1)c1cccc(-c2cc3ccccc3s2)c1` (stereo not drawn) [Example 2-14, Thiophene-2,5-dicarboxylic acid 2-{[1-(3-benzo[b]thiophen-2-yl-phenyl)-ethyl]-amide} 5-hydroxyamide], for which the IC90 is 70 nM.
The same measure, in the same setting: then `COc1ccccc1-c1ccc(C(C)NC(=O)c2ccc(C(=O)NO)s2)s1` (stereo not drawn) [Example 3-1, Thiophene-2,5-dicarboxylic acid 2-hydroxyamide 5-({1-[5-(2-methoxy-phenyl)-thiophen-2-yl]-ethyl}-amide)], with 110 nM.

The next assay concerns the target T1, recombinant HDAC-1 (Homo sapiens, UniProt Q13547).
T1 construct: made in house; host or cells: HEK 293 cells (ATCC-No. CRL 1573)
Kind of assay: HDAC biochemical quench assay. Particulars: recombinant HDAC-1 purified from HEK 293 cells, histone H4 peptide substrate 1 μM, 90 min. The text has this: The function of histone deacetylase (HDAC) is the deacetylation of lysines in e.g. histone H4. A peptide of 17 amino acids derived from histone H4 was labeled with tetramethylrhodamine (TAMRA, fluorophore, Invitrogen) at the C-terminus and QSY-7™ (quencher dye, Invitrogen) at the N-terminus and was used as a substrate (TAMRA-first 17 aa of histone H4-QSY7). Following deacetylation by HDAC, the enzyme Lys C is able to cleave the peptide after lysine. […] Inhibition of HDAC by compounds results in low signals because Lys C could not cleave the substrate and the quench effect persists.
For dose response curves, 10 concentrations were diluted 1:3 starting at 30 μM. 10 μl compound dilution were put into each well of a 384 well plate. 10 μl HDAC were added (recombinant HDAC-1 purified from HEK 293 cells (human embryonic kidney cell line transformed by Adenovirus 5 fragments, ATCC-No. CRL 1573); enzyme activity has to be assessed for each preparation). 10 μl peptide substrate was added (1 μM final concentration, derived from 1 mM stock solution diluted 1:1000 in test buffer). After 90 min incubation at room temperature, the reaction was stopped by addition of 20 μl test buffer including 3 μg/ml Lys C and 0.075% Sodium Dodecyl Sulfate (SDS). After overnight incubation the fluorescence signal of TAMRA was measured (Victor 2 from Wallac, absorption 544 nm, emission 590 nm). The O.D. of DMSO (dimethylsulfoxide)-treated control wells is 100%, the % inhibition of compound treated wells is calculated in relation to 100%. Based on 10 concentrations an IC50 curve is generated by using XLfit3 (XLfit software (ID Business Solution Ltd., Guilford, Surrey, UK)).
Test buffer used: a mixture of 10 mM 4-(2-hydroxyethyl)-1-piperazineethanesulfonic acid (HEPES) pH8, 10 mM NaCl, 10% Glycerol, 0.005% Triton X100™, 0.1 mM ethylenediaminetetraacetic acid (EDTA), 0.1 mM Tris(2-carboxyethyl)phosphine (TCEP). Used plates: 384 well plates (black, Greiner, 781077).
For orientation: IC50 means the concentration that inhibits the measured activity by half. In the case of `CC(NC(=O)c1ccc(C(=O)NO)s1)c1ccc(-c2ccc(N(C)C)cc2)cc1` (stereo not drawn) [Example 1-2, Thiophene-2,5-dicarboxylic acid 2-{[1-(4′-dimethylamino-biphenyl-4-yl)-ethyl]-amide} 5-hydroxyamide], the IC50 fell in the range of 3 to 6 nM.
On to `CC(NC(=O)c1ccc(C(=O)NO)s1)c1cccc(-c2ccc(F)cc2)c1` (stereo not drawn) [Example 2-8, Thiophene-2,5-dicarboxylic acid 2-{[1-(4′-fluoro-biphenyl-3-yl)-ethyl]-amide} 5-hydroxyamide], for which the 50% inhibitory concentration (IC50) was determined as 2.52 nM.
On the same count and under the same terms, to `CC(NC(=O)c1ccc(C(=O)NO)s1)c1cccc(-c2cn[nH]c2)c1` (stereo not drawn) [Example 2-18, Thiophene-2,5-dicarboxylic acid 2-hydroxyamide 5-({1-[3-(1H-pyrazol-4-yl)-phenyl]-ethyl}-amide)] belongs under 3 nM.
On to `CC(NC(=O)c1ccc(C(=O)NO)s1)c1ccc(-c2cccc(F)c2)s1` (stereo not drawn) [Example 3-9, Thiophene-2,5-dicarboxylic acid 2-({1-[5-(3-fluoro-phenyl)-thiophen-2-yl]-ethyl}-amide) 5-hydroxyamide], for which the IC50 lay within 3 to 6 nM.
In the case of `CC(NC(=O)c1ccc(C(=O)NO)s1)c1ccc(-c2ccccc2F)s1` (stereo not drawn) [Example 3-12, Thiophene-2,5-dicarboxylic acid 2-({1-[5-(2-fluoro-phenyl)-thiophen-2-yl]-ethyl}-amide) 5-hydroxyamide], the IC50 stood at 4.11 nM.
For `C[C@@H](NC(=O)c1ccc(C(=O)NO)s1)c1ccc(N2CCOCC2)cc1` [Example 4-1, (R)-Thiophene-2,5-dicarboxylic acid 2-hydroxyamide 5-{[1-(4-morpholin-4-yl-phenyl)-ethyl]-amide}], the IC50 lay within 3 to 6 nM.
`CC(NC(=O)c1ccc(C(=O)NO)s1)c1ccc(N2CCCCC2)cc1` (stereo not drawn) [Example 4-3, Thiophene-2,5-dicarboxylic acid 2-hydroxyamide 5-{[1-(4-piperidin-1-yl-phenyl)-ethyl]-amide}]: the IC50 was under 3 nM.
Consider `CC(NC(=O)c1ccc(C(=O)NO)s1)c1ccccc1` (stereo not drawn) [Reference compound, reference compound], for which the IC50 came out at 3.12 nM.

The record behind these values is patent US7396944B2, “Thiophene derivatives, their manufacture and use as pharmaceutical agents” (Hoffmann-La Roche Inc., priority 2004, dated 2008).
